Laboratory results reported in patent US6835751B2, “Bicyclic amino acids as pharmaceutical agents” (Warner-Dambert Company LLC, priority 1999, dated 2004).
Where a name gives a salt, the structure may show the parent alone.

How the values were obtained:
α2δ subunit = experiment: radioligand binding assay using [3H]gabapentin and the α2δ subunit; settings: [3H]gabapentin radioligand; α2δ subunit from porcine brain tissue
[1] = test system: carrageenan-induced hyperalgesia model; experiment: Carrageenin-induced hyperalgesia, rat paw pressure test (Randall-Selitto); assay type: in vivo; settings: dosed orally at 30 mg/kg
Protocol: Carrageenin-Induced Hyperalgesia
Nociceptive pressure thresholds were measured in the rat paw pressure test using an analgesimeter (Randall-Selitto method: Randall L. O. and Selitto J. J., “A method for measurement of analgesic activity on inflamed tissue,” Arch. Int. Pharmacodyn., 1957;4:409-419). Male Sprague-Dawley rats (70-90 g) were trained on this apparatus before the test day. Pressure was gradually applied to the hind paw of each rat and nociceptive thresholds were determined as the pressure (g) required to elicit paw withdrawal. A cutoff point of 250 g was used to prevent any tissue damage to the paw. On the test day, two to three baseline measurements were taken before animals were administered 100 μL of 2% carrageenin by intraplantar injection into the right hind paw.
(R)-2-Aza-spiro[4.5]decane-4-carboxylic acid hydrochloride was tested in the above carrageenan-induced hyperalgesia model. The compound was dosed orally at 30 mg/kg, and 1 hour postdose gave a percent of maximum possible effect ([…]) of 53%. At 2 hours postdose, it gave only 4.6% of MPE.

Row | Compound | α2δ binding affinity (α2δ subunit) | percent of maximum possible effect (APE) ([1]; 1 hour postdose) | % of MPE ([1]; 2 hours postdose)
1 | NCC1(CC(=O)O)C[C@H]2CC[C@@H]2C1 (racemic) [(±)-(1α,5β)(3-aminomethyl-bicyclo[3.2.0]hept-3-yl)-ascetic Acid Hydrochloride] | 2.86 µM | – | –
2 | NCC1(CC(=O)O)C[C@H]2CCC[C@@H]2C1 (racemic) [(±)-(1α,5β)(2-Aminomethyl-octahydro-pentalen-2-yl)-acetic Acid Hydrochloride] | >10 µM | – | –
3 | NC[C@@]1(CC(=O)O)C[C@H]2CC[C@H]2C1 [(1α,3β,5α)(3-Aminomethyl-bicyclo[3.2.0]hept-3-yl)-acetic acid hydrochloride] | 0.332 µM | – | –
4 | NCC1(CC(=O)O)C[C@H]2CCCC[C@@H]2C1 (racemic) [(±)-(1α,6β)(2-Aminomethyl-octahydro-inden-2-yl)-acetic Acid Hydrochloride] | >10 µM | – | –
5 | Cl.O=C(O)[C@H]1CNCC12CCCCC2 [(R)-2-Aza-spiro[4.5]decane-4-carboxylic acid hydrochloride] | – | 53% | 4.6%
6 | NC[C@]1(CC(=O)O)C[C@H]2CC[C@H]2C1 [(1α,3α,5α)(3-Aminomethyl-bicyclo[3.2.0]hept-3-yl)-acetic Acid Hydrochloride] | 0.038 µM | – | –
7 | NC[C@@]1(CC(=O)O)C[C@H]2CCCC[C@H]2C1 [((1α,6α,8β)(2-Aminomethyl-octahydro-inden-2-yl)-acetic Acid Hydrochloride] | >10 µM | – | –
8 | NC[C@]1(CC(=O)O)C[C@H]2CCCC[C@H]2C1 [(1α,6α,8α)(2-Aminomethyl-octahydro-inden-2-yl)-acetic acid hydrochloride] | 0.72 µM | – | –
9 | NC[C@]1(CC(=O)O)C[C@H]2CCC[C@H]2C1 [(1α,3α,5α)(2-Aminomethyl-octahydro-pentalen-2-yl)-acetic Acid Hydrochloride] | 1.58 µM | – | –
